Source: US6437185B1, “Quaternary ammonium compounds and process for preparing and using same” (Finetex, Inc., priority 1999, dated 2002)

How the values were obtained:
EpiDerm (Skin model) = details: groupings used to assign irritancy from ET-50; cited from earlier work
[1] = system: Epiocular samples (Ocular Tissue model); details: literature grouping, Kay and Calandra 1962; cited from earlier work
[2] = system: Epiocular samples (Ocular Tissue model); test: In-vitro Mat Tek ocular irritation protocol (Epiocular, Ocular Tissue model); assay type: cell-based; details: for Ocular Results/Classification: tested at 3.0% active
Method: Both products were tested at 3.0% active for dermal and ocular irritation by in-vitro Mat Tek Protocols (Skin model and Ocular Tissue model).
Construction of a Dose Response Curve: The extractant solution within each well was pipetted up and down several times to insure that each is well mixed. 200 microliters of each of the mixed extraction solutions was then pipetted into separate wells of a 96 well microtiter plate. A Dynatech MR 4000 Automatic Microplate Reader was used to determine the optical density of each extract at 570 nm. With the absorbance of a negative control defined as 100%, the percent absorbencies of the articles were determined (% viability=100×(OD [article]/OD [negative control]). The calculated percentages directly correlate with the cell metabolism in the Epiocular samples.
Using a semi-log scale, the percent viability (liner “y” axis) was plotted versus the dosing time (log “x” axis). By interpolation, the time at which the viability has dropped to 50% was determined.

Molecule	Expected In vivo Irritancy (example substances of the EpiDerm ET-50 groups) (EpiDerm (Skin model))	Irritancy Classification (example substances of the Draize score / Epiocular ET-50 groups) [1]	Mildness in toxicology studies (in words) ([2]; 3.0% active, dermal and ocular irritation, in-vitro Mat Tek Protocols)	Ocular Results/Classification ([2]; first table)	Ocular Results/Classification ([2]; second table with the same title)
CCCCCCCCCCCCOS(=O)(=O)[O-].[Na+] [2% Sodium Dodecyl Sulfate, Sodium Dodecyl Sulfate]	Moderate (0.5-4)	Mild (<20.5-9.67)			
O=[N+]([O-])O [Conc. Nitric Acid, Nitric Acid]	Severe, probably corrosive (<0.5)				
N′,N″,N′″-Triethyl, N′,N′,N′″,N′″-Tetramethyl, N″-[(Trioxypropyl)-ω-hydroxycetyl], dipropylene triammonium triethosulfate [FINQUAT ® CT-P]			milder than FINQUAT® CT	Non-Irritancy (as in Peg 75 Lanolin)	Non-Irritancy (as in Peg 75 Lanolin)
